Test results reported in EP4644383A1 (Jiangsu Yahong Meditech Co., Ltd., priority 2022, dated 2024).
Where two headings read alike, the source gives them in different places.

How the values were obtained:
FGFR1 = target: T1, FGFR1 (Homo sapiens, UniProt P11362); test: FGFR1 kinase activity inhibition assay (LanthaScreen TR-FRET); type: biochemical
T1 construct: cytoplasmic domain [398-822 (terminal) amino acids]; purchased Carna 08-133
Experimental: PV3552) and 10 mM EDTA were added to quench the kinase reaction, and incubated at 22°C for 60 minutes. • ⑤ The reaction was measured using a PerkinElmer EnVision multimode plate reader through TR-FRET dual wavelength detection. • 1. The RFU values were copied from the Envision program. • 2. The ratio of RFU 520nm/RFU 495nm was calculated. • 3. The value of the ratio was converted to a percentage inhibition value. % Inhibition = (max-data)/(max-min) × 100 [formula] "Min" represents the ratio of the control without enzyme, "max" represents the ratio of the DMSO control, and "data" represents the ratio of the compounds in wells with different concentrations. […] "Top" refers to the maximum response, "Bottom" refers to the minimum response, and "HillSlope" refers to the slope of the curve.

FGFR3 = target: T2, FGFR3 (Homo sapiens, UniProt P22607); test: FGFR3 kinase activity inhibition assay (LanthaScreen TR-FRET); type: biochemical; conditions: for Selectivity (X) FGFR1/FGFR3: ratio of IC50 FGFR1/FGFR3, selectivity towards FGFR3
T2 construct: FGFR3's cytoplasmic domain [436-806 (terminal) amino acids]; purchased Carna 08-135
T2 sequence (P22607 436-806): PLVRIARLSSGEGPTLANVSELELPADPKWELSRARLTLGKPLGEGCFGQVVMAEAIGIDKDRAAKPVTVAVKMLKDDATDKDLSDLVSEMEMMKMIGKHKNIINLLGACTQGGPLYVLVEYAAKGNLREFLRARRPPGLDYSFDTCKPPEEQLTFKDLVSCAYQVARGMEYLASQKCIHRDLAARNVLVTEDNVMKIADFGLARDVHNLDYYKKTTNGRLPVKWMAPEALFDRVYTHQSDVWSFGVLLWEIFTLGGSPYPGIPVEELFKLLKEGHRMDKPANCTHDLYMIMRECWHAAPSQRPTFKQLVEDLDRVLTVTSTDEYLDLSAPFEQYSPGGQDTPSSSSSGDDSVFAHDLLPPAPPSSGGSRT
In short: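 Read-out is TR-FRET, with the 520 nm/495 nm emission ratio normalised to DMSO (max) and enzyme-free (min) controls. Enzyme was the FGFR3 cytoplasmic domain, residues 436-806. EDTA (10 mM) stopped the reaction, followed by 60 min at 22 °C before reading.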

[1] = FGFR1 kinase, TR-FRET, read-out: IC50 (nM) FGFR1
[2] = FGFR3 kinase, TR-FRET, read-out: IC50 (nM) FGFR3

T1 sequence (P11362 398-822): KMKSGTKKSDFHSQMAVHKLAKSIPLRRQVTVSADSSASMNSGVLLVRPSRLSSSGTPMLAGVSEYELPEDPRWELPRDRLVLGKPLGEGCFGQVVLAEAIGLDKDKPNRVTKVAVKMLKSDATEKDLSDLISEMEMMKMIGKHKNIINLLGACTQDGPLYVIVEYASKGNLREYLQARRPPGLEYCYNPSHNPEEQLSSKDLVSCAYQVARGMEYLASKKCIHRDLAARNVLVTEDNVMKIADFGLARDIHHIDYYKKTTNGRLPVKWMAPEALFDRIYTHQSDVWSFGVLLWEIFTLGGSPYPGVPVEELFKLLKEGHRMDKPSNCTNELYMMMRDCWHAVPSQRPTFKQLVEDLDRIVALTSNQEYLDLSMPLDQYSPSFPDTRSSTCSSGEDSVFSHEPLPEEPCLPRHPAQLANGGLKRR

Compound	IC50 (FGFR1; [1]) [nM]	IC50 (FGFR3; [2]) [nM]	Selectivity (X) FGFR1/FGFR3 (FGFR3)	IC50 (FGFR1) [nM]	IC50 (FGFR3) [nM]
CC(Oc1ccc2[nH]nc(-c3cnn(C)c3)c2c1)c1ccnc2ccccc12 (stereo not drawn) [Example 87, 4-(1-((3-(1-methyl-1H-pyrazol-4-yl)-1H-indazol-5-yl)oxy)ethyl)quinoline]	> 100	10 to 100	B (B represents 20 ≤ multiple X<50)	–	–
Cc1ccc2ncccc2c1C(C)Oc1ncc2[nH]nc(-c3cnn(C)c3)c2n1 (stereo not drawn) [Example 110, 6-methyl-5-(1-((3-(1-methyl-1H-pyrazol-4-yl)-1H-pyrazino [4,3-d]pyrimidin-5-yl)oxy)ethyl)quinoline]	–	–	A (A represents 1 ≤ multiple X<20)	10 to 100	1 to 10
Cc1ccc2nccnc2c1C(C)Oc1ccc2[nH]nc(-c3cnn(C)c3)c2c1 (stereo not drawn) [Example 112]	10 to 100	< 1	A (A represents 1 ≤ multiple X<20)	–	–
CC(Oc1ccc2[nH]nc(-c3cnn(C)c3)c2c1)c1nccc2ncccc12 (stereo not drawn) [Example 120, 5-(1-((3-(1-methyl-1H-pyrazol-4-yl)-1H-indazol-5-yl)oxy)ethyl)-1,6-naphthyridine]	> 100	1 to 10	B (B represents 20 ≤ multiple X<50)	–	–
Cc1cnc2cccc(C(C)Oc3ccc4[nH]nc(-c5cnn(C)c5)c4c3)c2c1 (stereo not drawn) [Example 128, 3-methyl-5-(1-((3-(1-methyl-1H-pyrazol-4-yl)-1H-indazol-5-yl)oxy)ethyl)qu inoline]	> 100	1 to 10	B (B represents 20 ≤ multiple X<50)	–	–
CC(Oc1ccc2[nH]nc(-c3cnn(C)c3)c2c1)c1cc(C2CC2)cc2nccnc12 (stereo not drawn) [Example 139, 7-cyclopropyl-5-(1-((3-(1-methyl-1H-pyrazol-4-yl)-1H-indazol-5-yl)oxy)ethyl)qu inoxaline]	> 100	1 to 10	C (C represents 50 ≤ multiple X<100)	–	–
CC(C)c1cc(C(C)Oc2ccc3[nH]nc(-c4cnn(C)c4)c3c2)c2nccnc2c1 (stereo not drawn) [Example 144, 7-isopropyl-5-(1-((3-(1-methyl-1H-pyrazol-4-y1)-1H-indazol-5-yl)oxy)ethyl)quino xaline]	–	–	C (C represents 50 ≤ multiple X<100)	> 100	< 1
COc1cc(C(C)Oc2ccc3[nH]nc(-c4cnn(C)c4)c3c2)c2cccnc2c1 (stereo not drawn) [Example 148, 7-methoxy-5-(1-((3-(1-methyl-1H-pyrazol-4-yl)-1H-indazol-5-yl)oxy)ethyl)qu inoline]	> 100	1 to 10	C (C represents 50 ≤ multiple X<100)	–	–
CC(Oc1ccc2[nH]nc(-c3cnn(CCS(=O)(=O)N(C)C)c3)c2c1)c1cccc2nccnc12 (stereo not drawn) [Example 160, N,N-dimethyl-2-(4-(5-(1-(quinoxalin-5-yl)ethoxy)-1H-indazol-3-yl)-1H-pyrazol-1-yl)ethane-1-sulfonamide]	> 100	1 to 10	B (B represents 20 ≤ multiple X<50)	–	–
CC(Oc1ccc2[nH]nc(-c3cnn(C4CN(C(=O)CN)C4)c3)c2c1)c1cccc2nccnc12 (stereo not drawn) [Example 175, 2-amino-1-(3-(4-(5-(1-(quinoxalin-5-yl)ethoxy)-1H-indazol-3-yl)-1-pyrazol-1-yl)azetidin-1-yl)ethan-1-one]	–	–	A (A represents 1 ≤ multiple X<20)	1 to 10	< 1
CC(Oc1ccc2[nH]nc(-c3cnn(C)c3)c2c1)c1nccn2nccc12 (stereo not drawn) [Example 176, 4-(1-((3-(1-methyl-1H-pyrazol-4-yl)-1H-indazol-5-yl)oxy)ethyl)py razolo[1,5-a]pyrazine]	10 to 100	1 to 10	A (A represents 1 ≤ multiple X<20)	–	–
CC(Oc1ccc2[nH]nc(-c3cnn(C4CN(C(=N)N)C4)c3)c2c1)c1cccc2nccnc12 (stereo not drawn) [Example 177, 3-(4-(5-(1-(quinoxalin-5-yl)ethoxy)-1H-indazol-3-yl)-1H-pyrazol-1-yl)azetidine-1-carboximidamide]	10 to 100	1 to 10	B (B represents 20 ≤ multiple X<50)	–	–
CC(Oc1ccc2[nH]nc(-c3cnn(CCCS(N)(=O)=O)c3)c2c1)c1cccc2nccnc12 (stereo not drawn) [Example 179, 3-(4-(5-(1-(quinoxalin-5-yl)ethoxy)-1H-indazol-3-yl)-1H-pyrazol-1-yl)propane-1-sulfonamide]	10 to 100	< 1	B (B represents 20 ≤ multiple X<50)	–	–

The next lines start with results.

IC50 (FGFR1; [1]) [nM]	IC50 (FGFR3; [2]) [nM]	Selectivity (X) FGFR1/FGFR3 (FGFR3)	Compound	IC50 (FGFR1) [nM]	IC50 (FGFR3) [nM]
10 to 100	1 to 10	A (A represents 1 ≤ multiple X<20)	CCc1ccc2ncccc2c1C(C)Oc1ccc2[nH]nc(-c3cnn(C)c3)c2c1 (stereo not drawn) [Example 111, 6-ethyl-5-(1-((3-(1-methyl-1H-pyrazol-4-yl)-1H-indazol-5-yl)oxy)ethyl)qu inoline]	–	–
10 to 100	1 to 10	A (A represents 1 ≤ multiple X<20)	CCC(Oc1ccc2[nH]nc(-c3cnn(C)c3)c2c1)c1c(C)ccc2ncccc12 (stereo not drawn) [Example 113, 6-methyl-5-(1-((3-(1-methyl-1H-pyrazol-4-yl)-1H-indazol-5-yl)oxy)propyl)quinoline]	–	–
1 to 10	1 to 10	A (A represents 1 ≤ multiple X<20)	CC(C)c1ccc2nccnc2c1C(C)Oc1ccc2[nH]nc(-c3cnn(C)c3)c2c1 (stereo not drawn) [Example 129, 6-isopropyl-5-(1-((3-(1-methyl-1H-pyrazol-4-yl)-1H-indazol-5-yl)oxy)ethyl)quino xaline]	–	–
10 to 100	< 1	B (B represents 20 ≤ multiple X<50)	CC(Oc1ccc2[nH]nc(-c3cnn(C)c3)c2c1)c1cc(C#N)cc2nccnc12 (stereo not drawn) [Example 141, 8-(1-((3-(1-methyl-1H-pyrazol-4-yl)-1H-indazol-5-yl)oxy)ethyl)qu inoxaline-6-carbonitrile]	–	–
10 to 100	1 to 10	B (B represents 20 ≤ multiple X<50)	CC(Oc1ccc2[nH]nc(-c3cnn(C)c3)c2c1)c1cc(Br)cc2nccnc12 (stereo not drawn) [Example 143, 7-bromo-5-(1-((3-(1-methyl-1H-pyrazol-4-yl)-1H-indazol-5-yl)oxy)ethyl)quinoxaline]	–	–
1 to 10	< 1	A (A represents 1 ≤ multiple X<20)	CC(Oc1ccc2[nH]nc(-c3cnn(C)c3)c2c1)c1cc(C(F)F)cc2nccnc12 (stereo not drawn) [Example 145, 7-(difluoromethyl)-5-(1-((3-(1-methyl-1H-pyrazol-4-yl)-1H-indazol-5-yl)oxy)ethyl)qu inoxaline]	–	–
10 to 100	1 to 10	A (A represents 1 ≤ multiple X<20)	CC(Oc1ccc2[nH]nc(-c3cnn(C)c3)c2c1)c1cccc2ncc(N)cc12 (stereo not drawn) [Example 147, 5-(1-((3-(1-methyl-1H-pyrazol-4-yl)-1H-indazol-5-yl)oxy)ethyl)qu inoline-3-amine]	–	–
10 to 100	< 1	B (B represents 20 ≤ multiple X<50)	CC(Oc1ccc2[nH]nc(-c3ccc(N4CCS(=O)(=O)CC4)nc3)c2c1)c1cccc2nccnc12 (stereo not drawn) [Example 149, 4-(5-(5-(1-(quinoxalin-5-yl)ethoxy)-1H-indazol-3-yl)pyridin-2-yl)thiomorpholine1,1-dioxide]	–	–
1 to 10	< 1	A (A represents 1 ≤ multiple X<20)	CC(Oc1ccc2[nH]nc(-c3cnn(C)c3)c2c1)c1cc(N)cc2ncccc12 (stereo not drawn) [Example 150, 5-(1-((3-(1-methyl-1H-pyrazol-4-yl)-1H-indazol-5-yl)oxy)ethyl)qu inoline-7-amine]	–	–
10 to 100	1 to 10	A (A represents 1 ≤ multiple X<20)	Cc1ccc2nnccc2c1C(C)Oc1ccc2[nH]nc(-c3cnn(C)c3)c2c1 (stereo not drawn) [Example 168, 6-methyl-5-(1-((3-(1-methyl-1H-pyrazol-4-yl)-1H-indazol-5-yl)oxy)ethyl)cinnoline]	–	–
10 to 100	1 to 10	A (A represents 1 ≤ multiple X<20)	CC(Oc1ccc2[nH]nc(-c3cnn(C4CN(C(N)=O)C4)c3)c2c1)c1cc(Cl)cc2nccnc12 (stereo not drawn) [Example 169, 3-(4-(5-(1-(7-chloroquinoxalin-5-yl)ethoxy)-1H-indazol-3-yl)-1H-pyrazol-1-yl)aze tidine-1-carboxamide]	–	–
1 to 10	< 1	B (B represents 20 ≤ multiple X<50)	CC(Oc1ccc2[nH]nc(-c3cnn(C4CN(C(=O)N(C)C)C4)c3)c2c1)c1cccc2nccnc12 (stereo not drawn) [Example 178, N,N-dimethyl-3-(4-(5-(1-(quinoxalin-5-yl)ethoxy)-1H-indazol-3-yl)-1H-pyrazol-1-yl)azetidine-1-carboxamide]	–	–
1 to 10	1 to 10	A (A represents 1 ≤ multiple X<20)	CC(Oc1ccc2[nH]nc(-c3cnn(C4CN(C(=O)CC#N)C4)c3)c2c1)c1cccc2nccnc12 (stereo not drawn) [Example 180, 3-oxo-3-(3-(4-(5-(1-(quinoxalin-5-yl)ethoxy)-1H-indazol-3-yl)-1H-pyrazol-1-yl)azetidin-1-yl)propionitrile]	–	–
